Here are results for 2 compounds from US4771076A, “[(2-substituted 1,2-dihydro-1-oxo-1H-inden-5-yl)oxy]alkanesulfonic acids and salts thereof” (Merck & Co., Inc., priority 1987, dated 1988).

SMILES strings stand for the structures.

This experiment relates to cerebrocortical cat brain tissue slice. Briefly: In vitro Cerebrocortical Cat Brain Tissue Slice Assay (inhibition of HCO3^- -stimulated swelling). It counts as cell-based. Particulars: Felis catus, 1 h, 27 mM K^+, 10 mM HCO3^-, 37° C., 60 min incubation. On the procedure:
See, e.g., Bourke et al., Neurochem. Res., 8, 5 (1983), and Cragoe et al., J. Med. Chem., 25, 567 (1982).
In Vitro Cerebrocortical Cat Brain Tissue Slice Assay
Adult cats of 2-3 kg body weight were employed in tissue slice studies. Prior to sacrifice, the animals were anesthetized with ketamine hydrochloride, 10 mg/kg intramuscularly. Eight (three control, five experimental) pial surface cerebrocortical tissue slices (0.5 mm thick; approximately 150 mg initial fresh weight) were cut successively with a calibrated Stadie-Riggs fresh tissue microtome without moistening and weighed successively on a torsion balance. […]
Following the 60-minute incubation period, tissue slices were separated from incubation medium by filtration, reweighed, and homogenized in 1N HClO4 (10% w/v) for electrolyte analysis. […] Control slice swelling is expressed as microliters per gram initial preswelling fresh weight. The effectiveness of an inhibitor at a given concentration was measured by the amount of HCO3^- -stimulated swelling that occurred in its presence, computed as a percent of the maximum possible and is reported as an IC50, (See, e.g., Table I (Example 6)). Tissue and media Na^+ and K^+ levels were determined by emission flame photometry with Li^+ internal standard; Cl^- levels were determined by amperometric titration. Tissue viability during incubation is monitored by manometry.

Regarding `CC1(C2CCCC2)Cc2cc(OCCCS(=O)(=O)O)c(Cl)c(Cl)c2C1=O` (single isomer, unassigned) [Example 2, Sodium (+)3-[(6,7-dichloro-2-cyclopentyl-2-methyl-1-oxo-2,3-dihydro-1H-inden-5-yl)oxy]propanesulfonate hydrate], half-maximal inhibition (IC50) was put at 20 nM. For `CC1(C2CCCC2)Cc2cc(OCCCS(=O)(=O)O)c(Cl)c(Cl)c2C1=O` (centres unmarked) [Example 1, Sodium 3-[(6,7-dichloro-2-cyclopentyl-2-methyl-1-oxo-2,3-dihydro-1H-inden-5-yl)oxy]propanesulfonate hydrate] the value was 20 nM.
